Calls of active or inactive are those of the source. How the calls were made is not given here.
Tested on: CCRIS mutagenicity, Ames/micronucleus/aberration tests
Test: CCRIS mutagenicity studies
Settings: Test System: AMES SALMONELLA TYPHIMURIUM

With `CC(C)CON=O` the mutagenic call (Strain/Indicator: TA98, Metabolic Activation: HAMSTER, LIVER, S-9, AROCLOR 1254 (5 OR 10%), Method: PREINCUBATION) was “inactive; negative”, the mutagenic call (Strain/Indicator: TA98, Metabolic Activation: HAMSTER, LIVER, S-9, AROCLOR 1254 (30%), Method: PREINCUBATION) was “inactive; negative” and the mutagenic call (Strain/Indicator: TA98, Metabolic Activation: HAMSTER, LIVER, S-9, AROCLOR 1254, Method: STANDARD PLATE) was “inactive; negative”. The mutagenic call (Strain/Indicator: TA98, Metabolic Activation: NONE, Method: DESICCATOR) was “inactive; negative”, the mutagenic call (Strain/Indicator: TA98, Metabolic Activation: NONE, Method: FLUCTUATION (MICROTITER)) was “inactive; negative” and the mutagenic call (Strain/Indicator: TA98, Metabolic Activation: NONE, Method: PREINCUBATION) was “inactive; negative”. For the same compound, the mutagenic call (Strain/Indicator: TA98, Metabolic Activation: NONE, Method: STANDARD PLATE) was “inactive; negative”, the mutagenic call (Strain/Indicator: TA98, Metabolic Activation: RAT LIVER S-9, AROCLOR 1254, Method: FLUCTUATION (MICROTITER)) was “inactive; negative” and the mutagenic call (Strain/Indicator: TA98, Metabolic Activation: RAT, LIVER, S-9, AROCLOR 1254 (5 OR 10%), Method: PREINCUBATION) was “inactive; negative”. The mutagenic call (Strain/Indicator: TA98, Metabolic Activation: RAT, LIVER, S-9, AROCLOR 1254 (30%), Method: PREINCUBATION) was “inactive; negative”, the mutagenic call (Strain/Indicator: TA98, Metabolic Activation: RAT, LIVER, S-9, AROCLOR 1254, Method: DESICCATOR) was “inactive; negative” and the mutagenic call (Strain/Indicator: TA98, Metabolic Activation: RAT, LIVER, S-9, AROCLOR 1254, Method: STANDARD PLATE) was “inactive; negative”. The mutagenic call (Strain/Indicator: TA100, Metabolic Activation: HAMSTER, LIVER, S-9, AROCLOR 1254 (10%), Method: PREINCUBATION) was “active; positive”, the mutagenic call (Strain/Indicator: TA100, Metabolic Activation: HAMSTER, LIVER, S-9, AROCLOR 1254 (30%), Method: PREINCUBATION) was “active; positive” and the mutagenic call (Strain/Indicator: TA100, Metabolic Activation: HAMSTER, LIVER, S-9, AROCLOR 1254, Method: STANDARD PLATE) was “active; positive”. The mutagenic call (Strain/Indicator: TA100, Metabolic Activation: NONE, Method: PREINCUBATION) was “inactive; negative”, the mutagenic call (Strain/Indicator: TA100, Metabolic Activation: NONE, Method: STANDARD PLATE) was “active; positive” and the mutagenic call (Strain/Indicator: TA100, Metabolic Activation: RAT, LIVER, S-9, AROCLOR 1254 (10%), Method: PREINCUBATION) was “active; positive”. For the same compound, the mutagenic call (Strain/Indicator: TA100, Metabolic Activation: RAT, LIVER, S-9, AROCLOR 1254 (30%), Method: PREINCUBATION) was “active; positive”, the mutagenic call (Strain/Indicator: TA100, Metabolic Activation: RAT, LIVER, S-9, AROCLOR 1254, Method: DESICCATOR) was “active; positive” and the mutagenic call (Strain/Indicator: TA100, Metabolic Activation: RAT, LIVER, S-9, AROCLOR 1254, Method: STANDARD PLATE) was “active; positive”. The mutagenic call (Strain/Indicator: TA1535, Metabolic Activation: HAMSTER, LIVER, S-9, AROCLOR 1254 (10%), Method: PREINCUBATION) was “active; positive”, the mutagenic call (Strain/Indicator: TA1535, Metabolic Activation: HAMSTER, LIVER, S-9, AROCLOR 1254 (30%), Method: PREINCUBATION) was “active; positive” and the mutagenic call (Strain/Indicator: TA1535, Metabolic Activation: HAMSTER, LIVER, S-9, AROCLOR 1254, Method: STANDARD PLATE) was “active; positive”. The mutagenic call (Strain/Indicator: TA1535, Metabolic Activation: NONE, Method: DESICCATOR) was “active; positive”, the mutagenic call (Strain/Indicator: TA1535, Metabolic Activation: NONE, Method: STANDARD PLATE) was “active; positive” and the mutagenic call (Strain/Indicator: TA1535, Metabolic Activation: RAT, LIVER, S-9, AROCLOR 1254 (10%), Method: PREINCUBATION) was “inactive; negative”.

Reference: PubChem BioAssay AID1259407 (Chemical Carcinogenesis Research Information System (CCRIS), 2018)
